# Results taken from patent US20240058422A1, “GLUCAGON-LIKE PEPTIDE-1 RECEPTOR ANTAGONISTS” (INDIANA UNIVERSITY RESEARCH AND TECHNOLOGY CORPORATION, priority 2022, published 2024).
# Where two headings read alike, the source gives them in different places. Starred links: 1 amine or outer side, 2 acyl side, 3 side chain; linkers in the order of their positions; H or OH if unused. Non-standard residues stand in square brackets, D forms with d. Residues, ends and D or L forms follow the SMILES beside them. Groups on a side chain read outwards from the residue. *: point of attachment. C18 diacid = O=C(O)CCCCCCCCCCCCCCCCC(=O)*; γGlu = O=C(O)[C@H](CCC(=O)[*:2])N[*:1]; Palmitoyl = CCCCCCCCCCCCCCCC(=O)*; AEEA = NCCOCCOCC(=O)O; Aib = CC(C)(N)C(=O)O
# Legend:
# GLP-1R = GLP-1R (Homo sapiens, UniProt P43220); assay: GLP-1 receptor-mediated cAMP induction, luciferase reporter gene antagonism assay; assay type: cell-based; set-up: host or cells: HEK 293; conditions: antagonism of 0.05 nM GLP-1, HEK 293 cells
# Description: GLP-1 Receptor-Mediated cAMP Induction The ability of peptides to stimulate or block cAMP induction at the GLP-1 receptor was examined by a luciferase-based reporter gene assay. Cotransfection of HEK 293 cells with the human GLP-1 receptor (Open Biosystems) and a cAMPinducible (cAMPresponsive element) luciferase gene constituted the cellular construct where receptor activation could be measured. Bioassays were performed by first serum depriving the cells for 16 h in 0.25% bovine growth serum (HyClone)-supplemented Dulbecco's modified Eagle's medium (Invitrogen) and then adding serial dilutions of the peptides over the appropriate concentration ranges in 96-well poly-D-lysine-coated plates (BD Biosciences). For antagonism assays, a constant concentration of GLP-1 (0.05 nM) was added to the assay plate after the diluted peptides. Incubation continued for 5 h at 37° C., 5% CO2 and was followed by the addition of an equivalent volume (100 μL) of LucLite luminescence substrate reagent (Perkin-Elmer). MicroBeta 1450 liquid scintillation counting (Perkin-Elmer) quantified the luminescence signal in counts per second (cps) after shaking the plate at 600 rpm for 3 min. Data was plotted using Origin software (OriginLab) and the effective concentration 50 (EC50) or inhibitory concentration 50 (IC50) was determined by sigmoidal fitting. Potency was determined by comparative analysis of relative EC50 or IC50 values. Each experiment was repeated at least three times with each sample assayed in duplicate.
# [1] = 80 mM ammonium bicarbonate buffer, pH 7.7
# [2] = Table 5, d-AA variants of 9-40am Jant4 K40[C16], read-out: Bioactivity KC50
# [3] = 80 mM ammonium bicarbonate buffer, pH 7.7, Solubility [mg/mL] 80 mM AmBicarb pH7.7, Table 2, 80 mM AmBicarb pH7.7
# [4] = Table 2, C16 linker variants of 9-40amide Jant4 K40[X], read-out: Biactivity IC50
# Sequence of GLP-1R (P43220 24-463): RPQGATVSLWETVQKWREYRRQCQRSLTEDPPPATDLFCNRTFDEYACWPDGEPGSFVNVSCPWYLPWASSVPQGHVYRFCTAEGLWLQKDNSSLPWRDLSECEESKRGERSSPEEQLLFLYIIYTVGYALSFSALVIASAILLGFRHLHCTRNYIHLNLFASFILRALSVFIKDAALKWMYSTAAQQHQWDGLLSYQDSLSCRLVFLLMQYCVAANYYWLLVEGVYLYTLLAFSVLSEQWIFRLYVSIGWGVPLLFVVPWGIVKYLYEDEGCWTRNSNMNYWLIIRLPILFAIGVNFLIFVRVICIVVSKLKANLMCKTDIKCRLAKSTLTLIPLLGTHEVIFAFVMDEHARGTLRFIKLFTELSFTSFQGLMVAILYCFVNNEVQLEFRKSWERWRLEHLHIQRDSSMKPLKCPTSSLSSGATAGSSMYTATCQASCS
SMILES,solubility (Solubility in buffer; [1]),IC50 (GLP-1R; [2]),solubility (Solubility in buffer; [3]),IC50 (GLP-1R; [4]),other results
CCCCCCCCCCCCCCCC(=O)NCCCC[C@H](NC(=O)[C@H](CO)NC(=O)[C@@H]1CCCN1C(=O)[C@@H]1CCCN1C(=O)[C@@H]1CCCN1C(=O)[C@H](C)NC(=O)CNC(=O)[C@H](CO)NC(=O)[C@H](CO)NC(=O)[C@@H]1CCCN1C(=O)CNC(=O)CNC(=O)[C@H](CCCCN)NC(=O)[C@@H](NC(=O)[C@H](CC(C)C)NC(=O)[C@H](Cc1c[nH]c2ccccc12)NC(=O)[C@H](C)NC(=O)[C@@H](NC(=O)[C@H](Cc1ccccc1)NC(=O)[C@H](CCC(=O)O)NC(=O)[C@H](CCCNC(=N)N)NC(=O)[C@@H](NC(=O)[C@H](C)NC(=O)[C@H](CCC(N)=O)NC(=O)[C@@H](CCC(=O)O)NC(=O)[C@H](CCC(=O)O)NC(=O)[C@H](CC(C)C)NC(=O)[C@H](Cc1ccc(O)cc1)NC(=O)[C@H](CO)NC(=O)[C@H](CO)NC(=O)[C@@H](NC(=O)[C@@H](N)CC(=O)O)C(C)C)C(C)C)[C@@H](C)CC)C(C)C)C(N)=O [compound 85] (H-DVSSYLE[dE]QAVREFIAWLVKGGPSSGAPPPSK(Palmitoyl)-NH2; N-terminus assumed),10.7 mg/mL,41 nM,–,–,–
CCCCCCCCCCCCCCCC(=O)NCCCC[C@H](NC(=O)[C@H](CO)NC(=O)[C@@H]1CCCN1C(=O)[C@@H]1CCCN1C(=O)[C@@H]1CCCN1C(=O)[C@H](C)NC(=O)CNC(=O)[C@H](CO)NC(=O)[C@H](CO)NC(=O)[C@@H]1CCCN1C(=O)CNC(=O)CNC(=O)[C@H](CCCCN)NC(=O)[C@@H](NC(=O)[C@H](CC(C)C)NC(=O)[C@H](Cc1c[nH]c2ccccc12)NC(=O)[C@H](C)NC(=O)[C@H](NC(=O)[C@H](Cc1ccccc1)NC(=O)[C@H](CCC(=O)O)NC(=O)[C@H](CCCNC(=N)N)NC(=O)[C@@H](NC(=O)[C@H](C)NC(=O)[C@H](CCC(N)=O)NC(=O)[C@H](CCC(=O)O)NC(=O)[C@H](CCC(=O)O)NC(=O)[C@H](CC(C)C)NC(=O)[C@H](Cc1ccc(O)cc1)NC(=O)[C@H](CO)NC(=O)[C@H](CO)NC(=O)[C@@H](NC(=O)[C@@H](N)CC(=O)O)C(C)C)C(C)C)[C@H](C)CC)C(C)C)C(N)=O [compound 51] (H-DVSSYLEEQAVREF[dI]AWLVKGGPSSGAPPPSK(Palmitoyl)-NH2; N-terminus assumed),–,31 nM,–,–,"solubility (Solubility in buffer; 80 mM ammonium bicarbonate buffer, pH 7.7, Solubility [mg/mL] 80 mM/AmBicarb pH7.7, Table 5, 80 mM AmBicarb pH7.7): > 20 mg/mL"
CCCCCCCCCCCCCCCC(=O)N[C@@H](CCC(=O)N[C@@H](CCC(=O)N[C@@H](CCC(=O)N[C@@H](CCC(=O)N[C@@H](CCC(=O)N[C@@H](CCC(=O)NCCCC[C@H](NC(=O)[C@H](CO)NC(=O)[C@@H]1CCCN1C(=O)[C@@H]1CCCN1C(=O)[C@@H]1CCCN1C(=O)[C@H](C)NC(=O)CNC(=O)[C@H](CO)NC(=O)[C@H](CO)NC(=O)[C@@H]1CCCN1C(=O)CNC(=O)CNC(=O)[C@H](CCCCN)NC(=O)[C@@H](NC(=O)[C@H](CC(C)C)NC(=O)[C@H](Cc1c[nH]c2ccccc12)NC(=O)[C@H](C)NC(=O)[C@@H](NC(=O)[C@H](Cc1ccccc1)NC(=O)[C@H](CCC(=O)O)NC(=O)[C@H](CCCNC(=N)N)NC(=O)[C@@H](NC(=O)[C@H](C)NC(=O)[C@H](CCC(N)=O)NC(=O)[C@H](CCC(=O)O)NC(=O)[C@H](CCC(=O)O)NC(=O)[C@H](CC(C)C)NC(=O)[C@H](Cc1ccc(O)cc1)NC(=O)[C@H](CO)NC(=O)[C@H](CO)NC(=O)[C@@H](NC(=O)[C@@H](N)CC(=O)O)C(C)C)C(C)C)[C@@H](C)CC)C(C)C)C(N)=O)C(=O)O)C(=O)O)C(=O)O)C(=O)O)C(=O)O)C(=O)O [compound 55] (H-DVSSYLEEQAVREFIAWLVKGGPSSGAPPPSK([γGlu-γGlu-γGlu-γGlu-γGlu-γGlu-Palmitoyl])-NH2; N-terminus assumed),–,–,> 20 mg/mL,22 nM,–
CCCCCCCCCCCCCCCC(=O)NCCCC[C@H](NC(=O)[C@H](CO)NC(=O)[C@@H]1CCCN1C(=O)[C@@H]1CCCN1C(=O)[C@@H]1CCCN1C(=O)[C@H](C)NC(=O)CNC(=O)[C@H](CO)NC(=O)[C@H](CO)NC(=O)[C@@H]1CCCN1C(=O)CNC(=O)CNC(=O)[C@H](CCCCN)NC(=O)[C@@H](NC(=O)[C@H](CC(C)C)NC(=O)[C@H](Cc1c[nH]c2ccccc12)NC(=O)[C@H](C)NC(=O)[C@@H](NC(=O)[C@H](Cc1ccccc1)NC(=O)[C@H](CCC(=O)O)NC(=O)[C@H](CCCNC(=N)N)NC(=O)[C@@H](NC(=O)C(C)(C)NC(=O)[C@H](CCC(N)=O)NC(=O)[C@H](CCC(=O)O)NC(=O)[C@H](CCC(=O)O)NC(=O)[C@H](CC(C)C)NC(=O)[C@H](Cc1ccc(O)cc1)NC(=O)[C@H](CO)NC(=O)[C@H](CO)NC(=O)[C@@H](NC(=O)[C@@H](N)CC(=O)O)C(C)C)C(C)C)[C@@H](C)CC)C(C)C)C(N)=O [compound 46] (H-DVSSYLEEQ[Aib]VREFIAWLVKGGPSSGAPPPSK(Palmitoyl)-NH2; N-terminus assumed),17.5 mg/mL,–,–,–,"solubility (Solubility in buffer; PBS, pH 7.7, Solubility [mg/mL] PBS pH7.7, Table 4, PBS pH7.7): 0.7 mg/mL; IC50 (GLP-1R; Table 4, Aib variants of 9-40am Jant4 K40[C16], read-out: Bioactivity IC50): 7 nM"
CC[C@H](C)[C@H](NC(=O)[C@H](Cc1ccccc1)NC(=O)[C@H](CCC(=O)O)NC(=O)[C@H](CCCNC(=N)N)NC(=O)[C@@H](NC(=O)[C@H](C)NC(=O)[C@H](CCC(N)=O)NC(=O)[C@H](CCC(=O)O)NC(=O)[C@H](CCC(=O)O)NC(=O)[C@H](CC(C)C)NC(=O)[C@H](Cc1ccc(O)cc1)NC(=O)[C@H](CO)NC(=O)[C@H](CO)NC(=O)[C@@H](NC(=O)[C@@H](N)CC(=O)O)C(C)C)C(C)C)C(=O)N[C@@H](C)C(=O)N[C@@H](Cc1c[nH]c2ccccc12)C(=O)N[C@@H](CC(C)C)C(=O)N[C@H](C(=O)N[C@@H](CCCCN)C(=O)NCC(=O)NCC(=O)N1CCC[C@H]1C(=O)N[C@@H](CO)C(=O)N[C@@H](CO)C(=O)NCC(=O)N[C@@H](C)C(=O)N1CCC[C@H]1C(=O)N1CCC[C@H]1C(=O)N1CCC[C@H]1C(=O)N[C@@H](CO)C(=O)N[C@@H](CCCCNC(=O)CC[C@H](NC(=O)CC[C@H](NC(=O)CC[C@H](NC(=O)CC[C@H](NC(=O)CC[C@H](NC(=O)CC[C@H](NC(=O)CCCCCCCCCCCCCCCCC(=O)O)C(=O)O)C(=O)O)C(=O)O)C(=O)O)C(=O)O)C(=O)O)C(N)=O)C(C)C [compound 66] (H-DVSSYLEEQAVREFIAWLVKGGPSSGAPPPSK([γGlu-γGlu-γGlu-γGlu-γGlu-γGlu-C18 diacid])-NH2; N-terminus assumed),–,–,> 25 mg/mL,1460 nM,–
CCCCCCCCCCCCCCCC(=O)NCCCC[C@H](NC(=O)[C@H](CO)NC(=O)[C@@H]1CCCN1C(=O)[C@@H]1CCCN1C(=O)[C@@H]1CCCN1C(=O)[C@H](C)NC(=O)CNC(=O)[C@H](CO)NC(=O)[C@H](CO)NC(=O)[C@@H]1CCCN1C(=O)CNC(=O)CNC(=O)[C@H](CCCCN)NC(=O)[C@@H](NC(=O)[C@H](CC(C)C)NC(=O)[C@H](Cc1c[nH]c2ccccc12)NC(=O)[C@H](C)NC(=O)[C@@H](NC(=O)[C@H](Cc1ccccc1)NC(=O)[C@H](CCC(=O)O)NC(=O)[C@H](CCCNC(=N)N)NC(=O)[C@@H](NC(=O)[C@H](C)NC(=O)[C@@H](CCC(N)=O)NC(=O)[C@H](CCC(=O)O)NC(=O)[C@H](CCC(=O)O)NC(=O)[C@H](CC(C)C)NC(=O)[C@H](Cc1ccc(O)cc1)NC(=O)[C@H](CO)NC(=O)[C@H](CO)NC(=O)[C@@H](NC(=O)[C@@H](N)CC(=O)O)C(C)C)C(C)C)[C@@H](C)CC)C(C)C)C(N)=O [compound 86] (H-DVSSYLEE[dQ]AVREFIAWLVKGGPSSGAPPPSK(Palmitoyl)-NH2),2.2 mg/mL,41 nM,–,–,–
CCCCCCCCCCCCCCCC(=O)NCCOCCOCC(=O)N[C@@H](CCC(=O)NCCOCCOCC(=O)N[C@@H](CCC(=O)NCCCC[C@H](NC(=O)[C@H](CO)NC(=O)[C@@H]1CCCN1C(=O)[C@@H]1CCCN1C(=O)[C@@H]1CCCN1C(=O)[C@H](C)NC(=O)CNC(=O)[C@H](CO)NC(=O)[C@H](CO)NC(=O)[C@@H]1CCCN1C(=O)CNC(=O)CNC(=O)[C@H](CCCCN)NC(=O)[C@@H](NC(=O)[C@H](CC(C)C)NC(=O)[C@H](Cc1c[nH]c2ccccc12)NC(=O)[C@H](C)NC(=O)[C@@H](NC(=O)[C@H](Cc1ccccc1)NC(=O)[C@H](CCC(=O)O)NC(=O)[C@H](CCCNC(=N)N)NC(=O)[C@@H](NC(=O)[C@H](C)NC(=O)[C@H](CCC(N)=O)NC(=O)[C@H](CCC(=O)O)NC(=O)[C@H](CCC(=O)O)NC(=O)[C@H](CC(C)C)NC(=O)[C@H](Cc1ccc(O)cc1)NC(=O)[C@H](CO)NC(=O)[C@H](CO)NC(=O)[C@@H](NC(=O)[C@@H](N)CC(=O)O)C(C)C)C(C)C)[C@@H](C)CC)C(C)C)C(N)=O)C(=O)O)C(=O)O [compound 62] (H-DVSSYLEEQAVREFIAWLVKGGPSSGAPPPSK([γGlu-AEEA-γGlu-AEEA-Palmitoyl])-NH2; N-terminus assumed),–,–,> 25 mg/mL,7 nM,–
